{"source": "paper PMC6767220", "about": "“Active Anti-Inflammatory and Hypolipidemic Derivatives of Lorazepam” (Molecules, 2019)", "key": {"soybean lipoxygenase-1": {"molecular_target": "T1, soybean lipoxygenase-1 (Glycine max, UniProt P08170)", "T1 sequence (P08170 1-839)": "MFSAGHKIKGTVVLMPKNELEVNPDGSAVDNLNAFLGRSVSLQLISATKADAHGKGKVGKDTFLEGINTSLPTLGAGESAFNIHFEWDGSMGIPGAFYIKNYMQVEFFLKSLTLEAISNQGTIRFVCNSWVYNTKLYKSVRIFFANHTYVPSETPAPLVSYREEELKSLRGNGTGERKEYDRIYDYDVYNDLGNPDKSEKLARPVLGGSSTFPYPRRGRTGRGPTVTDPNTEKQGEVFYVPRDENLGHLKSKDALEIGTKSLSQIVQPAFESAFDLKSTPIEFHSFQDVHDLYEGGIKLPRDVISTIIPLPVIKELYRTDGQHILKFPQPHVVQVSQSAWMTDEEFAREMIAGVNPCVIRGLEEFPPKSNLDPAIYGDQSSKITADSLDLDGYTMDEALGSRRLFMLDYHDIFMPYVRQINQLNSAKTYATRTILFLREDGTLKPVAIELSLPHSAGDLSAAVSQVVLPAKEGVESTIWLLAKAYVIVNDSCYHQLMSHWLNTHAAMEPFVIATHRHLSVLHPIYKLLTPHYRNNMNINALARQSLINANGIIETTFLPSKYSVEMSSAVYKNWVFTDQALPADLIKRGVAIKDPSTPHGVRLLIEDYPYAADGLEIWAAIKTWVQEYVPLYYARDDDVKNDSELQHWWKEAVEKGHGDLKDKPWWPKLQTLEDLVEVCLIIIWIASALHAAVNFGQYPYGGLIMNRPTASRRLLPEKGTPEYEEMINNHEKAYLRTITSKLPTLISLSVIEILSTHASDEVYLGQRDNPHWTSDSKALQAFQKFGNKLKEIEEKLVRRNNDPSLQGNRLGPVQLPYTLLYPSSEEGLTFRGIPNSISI", "assay": "Inhibition of soybean lipoxygenase", "assay_type": "biochemical", "details": "sodium linoleate 0.1 mM, 7 min incubation; read-out: Lipoxygenase IC50", "description": "The reaction mixture contained the test compounds dissolved in ethanol and soybean lipoxygenase (250 U/mL) in Tris buffer (pH 9). The reaction was initiated by the addition of sodium linoleate (0.1 mM) and monitored for 7 min at 28 °C, by recording the absorbance of a conjugated diene structure at 234 nm. For the estimation of the type of inhibition, the above experiments were repeated, using sodium linoleate at 1 mM, which is higher than the saturating substrate concentration."}, "inflammation [1]": {"test_system": "inflammation", "details": "cited from earlier work"}, "inflammation [2]": {"test_system": "inflammation", "set-up": "method as in PMID 25792646", "details": "cited from earlier work"}, "[3]": {"test_system": "carrageenan-induced rat paw oedema", "assay": "Carrageenan-induced rat paw oedema", "assay_type": "in vivo", "details": "ip, i.p. 0.15 mmol/kg, 3.5 h post administration, vs controls, read-out: % Oedema Reduction", "description": "An aqueous solution of carrageenan was prepared (1% w/v) and 0.1 mL of this was injected i.d. into the right hind paw of female rats; the left paw served as control. The tested compounds (suspended in water with a few drops of Tween 80) were given intra peritoneally (i.p.) (0.15 mmol/kg) 5 min prior to the carrageenan injection. After 3.5 h the hind paws were weighed separately. The produced oedema was estimated as paw weight increase."}, "[4]": {"test_system": "Triton WR1339 (tyloxapol) induced hyperlipidemia", "assay": "Triton WR1339 (tyloxapol) induced hyperlipidemia: plasma TC, TG, LDL-C", "assay_type": "in vivo", "details": "ip, rat plasma, 24 h, tyloxapol 200 mg/kg i.p.; for inhibition in vivo at 50 µmol/kg: dose i.p. 50 µmol/kg; for inhibition in vivo at 150 µmol/kg: dose i.p. 150 µmol/kg"}, "[5]": {"assay": "Interaction with the stable radical DPPH", "details": "DPPH 200 µΜ, 30 min incubation", "description": "Compounds (in absolute ethanol, final concentration 50–200 µM) were added to an equal volume of an ethanolic solution of DPPH (final concentration 200 µM) at room temperature (22 ± 2 °C). Absorbance (517 nm) was recorded after 30 min [22]."}, "[6]": {"test_system": "rat hepatic microsomal membrane lipid peroxidation", "assay": "Inhibition of rat hepatic microsomal membrane lipid peroxidation induced by ferrous ascorbate", "assay_type": "biochemical", "details": "rat hepatic microsomal fraction, ferrous ascorbate, 45 min incubation", "description": "The incubation mixture contained heat-inactivated rat hepatic microsomal fraction, ascorbic acid (0.2 mM) in Tris–HCl/KCl buffer (pH 7.4) and the test compounds dissolved in dimethylsulphoxide. The reaction was initiated by FeSO4 (10 µM) and the mixture was incubated at 37 °C. Aliquots were taken at various time intervals for 45 min. Lipid peroxidation was assessed spectrophotometrically (535 against 600 nm) by the determination of 2-thiobarbituric acid (TBA) reactive material."}, "[7]": {"details": "read-out: % Reduction LDL-C (LDL cholesterol)"}, "[8]": {"details": "read-out: % Reduction TC (total cholesterol)"}, "[9]": {"details": "read-out: % Reduction TG (triglycerides)"}}, "note": "pIC50: −log10 of the molar value. Like-named read-outs stand apart in the source and are kept apart here.", "data": [{"smiles": "Cc1cc(C(C)(C)C)c(O)c(C(C)(C)C)c1", "note": "[BHT, 2,6-di-tert-butyl-4-methylphenol]", "values": [{"measurement": "pIC50", "setting": "soybean lipoxygenase-1", "value": 3.72}, {"measurement": "Anti-inflammatory action in vivo", "setting": "inflammation [1]", "value": "lacks such action"}, {"measurement": "Anti-inflammatory action in vitro", "setting": "inflammation [2]", "value": "lacks such action"}]}, {"smiles": "CC(C)(C)c1cc(C=CC(=O)OC2N=C(c3ccccc3Cl)c3cc(Cl)ccc3NC2=O)cc(C(C)(C)C)c1O", "note": "(centres unmarked) [Compound 8, (E)-7-Chloro-5-(2-chlorophenyl)-2-oxo-2,3-dihydro-1H-benzo[e][1,4]diazepin-3-yl 3-(3,5-di-tert-butyl-4-hydroxyphenyl)acrylate]", "values": [{"measurement": "inhibition in vivo at 150 µmol/kg", "setting": "[3]", "value": 37, "unit": "%"}, {"measurement": "inhibition in vivo at 50 µmol/kg", "setting": "[4]; [7]", "value": 44, "unit": "%"}, {"measurement": "inhibition in vivo at 50 µmol/kg", "setting": "[4]; [8]", "value": 59, "unit": "%"}, {"measurement": "inhibition in vivo at 50 µmol/kg", "setting": "[4]; [9]", "value": 52, "unit": "%"}, {"measurement": "inhibition in vivo at 150 µmol/kg", "setting": "[4]; [7]", "value": 63, "unit": "%"}, {"measurement": "inhibition in vivo at 150 µmol/kg", "setting": "[4]; [8]", "value": 81, "unit": "%"}, {"measurement": "inhibition in vivo at 150 µmol/kg", "setting": "[4]; [9]", "value": 66, "unit": "%"}, {"measurement": "Percent Interaction with DPPH", "setting": "[5]; compound 50 µΜ", "value": 30, "unit": "%"}, {"measurement": "Percent Interaction with DPPH", "setting": "[5]; compound 100 µΜ", "value": 49, "unit": "%"}, {"measurement": "Percent Interaction with DPPH", "setting": "[5]; compound 200 µΜ", "value": 90, "unit": "%"}, {"measurement": "pIC50", "setting": "[6]", "value": "< 4.00"}, {"measurement": "pIC50", "setting": "soybean lipoxygenase-1", "value": 4.36}, {"measurement": "melting point", "value": 274, "unit": "°C"}]}, {"smiles": "O=C(O)CCCC[C@@H]1CCSS1", "note": "[lipoic acid, (R)-5-(1,2-dithiolan-3-yl)pentanoic acid]", "values": [{"measurement": "Anti-inflammatory action", "setting": "inflammation [1]; at similar doses", "value": "weak anti-inflammatory agent"}]}]}
